Entries after “also recorded” stand apart in the source; their conditions may differ. {P} = phosphate
Legend:
SOD2 protein = test: Western blot analysis of antioxidant enzymes: SOD2 protein; assay type: cell-based, human
Protocol: Cell lysates were harvested at various intervals after T-oligo treatment in harvest buffer containing 0.25 M Tris HCl (pH 7.5), 0.375 M NaCl, 2.5% sodium deoxycholate, 1% Triton X-100, 25 mM MgCl2, 0.1 mg/ml aprotinin (Sigma, St. Louis, Mo.) and 1 mM phenylmethyl sulfonyl flouride (PMSF) (Sigma). Samples were sheared through a fine needle syringe, sonicated, centrifuged and the supernatant was isolated. Total cellular protein concentrations were determined spectrophotometrically with the Bio-Rad protein assay (Bio-Rad Laboratories, Inc, Hercules, Calif.). Equal amounts of total protein from each sample (35-65 μg) were separated by 10-15% polyacrylamide gel electrophoresis, and transferred to nitrocellulose membranes. After transfer, gels were stained with Coomassie Blue (Sigma) to ascertain evenness of loading.
Membranes were reacted with antibodies diluted in Tris-based buffer with nonfat milk powder as a blocking agent. […] Antibody binding was detected with electrochemical luminescence (ECL kit, NEN Life Science Products, Inc.) and exposure to XAR film (Eastman Kodak Co.).
Northern and western films as well as stained membranes and pictures of ethidium bromide-stained gels were digitally scanned and analyzed by densitometry. […]

[1] = system: human newborn fibroblasts; test: Propidium iodide (PI) staining of nonviable cells; assay type: cell-based; details: doses 25-250% of standard dose (40 μM TO, 100 μM pTT); positive control 1 mM H2O2
Protocol: Propidium iodide (PI, Sigma) was used to stain nonviable cells for some experiments. PI stock solution (1 mg,/ml) was added to samples immediately after harvesting to achieve a final concentration of 2 μg/ml.
To better characterize the dose effects of different pTT and 11-base T-oligo doses, a dose response study was conducted. For each T-oligo the doses were 25-250% of the standard dose used (40 μM for TO and 100 μM for pTT). […] Panel C is a compilation of the maximum DCF peak shifts measured with each treatment: diluent, 250 μM pTT, 100 μM TO and 1 mM as the positive control. […] There is a significant difference in DCF fluorescence stimulated by the two treatments when the same doses were used (25, 40 and 100 μM) (2-way ANOVA, p=0.0038).

human dermal fibroblasts = test: Senescence-associated β-galactosidase (SA-β-gal) assay; assay type: cell-based; details: for SA-β-gal positive cells, result in words: up to 72 hours of treatment
Source text: Subconfluent senescent fibroblasts were found by Dimri et al. to stain blue in an assay that measures β-galactosidase activity at pH 6.0.^240 As per their protocol, cells were fixed with a 2% formaldehyde and 0.2% glutaraldehyde solution, washed, and stained overnight in X-gal solution. The next day, 3-4 photographs were taken of representative fields in each plate under a 10× microscope objective using coded labels. The number of blue (senescent) cells in each photograph could then be determined in a blinded fashion. The SA-β-gal assay was performed in parallel with the DCF time-course experiments, using the same mixture of donor cells and seeding densities.

[2] = system: neonatal foreskin fibroblasts; test: Hydrogen peroxide oxidative challenge, cell yields
Protocol: Early passage neonatal foreskin fibroblasts were passed to 100 mm dishes and pretreated 24 hours after passage with 100 μM pTT or diluent control. […] For each experiment fresh H2O2 solutions were made in DMEM. The H2O2 and control DMEM solutions were made and sterilized through 0.45 μm syringe filters immediately before treatment. After the one-hour treatment with H2O2 or diluent control, fresh medium was provided. Cells were harvested at later timepoints by a brief washing in 1× EDTA, followed by trypsinization at 37° C. Cell yields were determined using the Coulter Z cell counter.
The hydrogen peroxide oxidative challenge assay data were generated with the combined results of four separate experiments. The averages for each treatment condition and timepoint studied (8, 24, 48, and 72 hours) were used to calculate the percent of adherent H2O2 treated cells relative to diluent-treated cells. Changes in cell yield were determined as a function of time using General Linear Model with repeated measure analysis (SPSS Version 10).
After 72 hours of pretreatment with either 100 μM pTT or diluent control, the same number of cells were replated with fresh 10% CS DMEM lacking pTT. The following day they were exposed to a dose of 25 μM H2O2 or DMEM control for 1 hour, and cell yields were determined at 8, 24, 48 and 72 hours following the H2O2 treatment.
Newborn fibroblasts cells were plated in DMEM supplemented with 10% CS. Forty-eight hours after plating, cells were provided fresh medium. Twenty-four hours later, cells were provided fresh medium containing 40 μM of p[sequence] (abbreviated as TO, SEQ ID NO: 1) or diluent as a control. Seventy-two hours later, cells were harvested and replated in fresh medium lacking oligonucleotides. Twenty-four hours later, cells were provided fresh H2O2 (25 μM) or diluent for 1 hour and then provided fresh DMEM with 10% CS. Cell yield was then measured in TO-pre-treated cultures as well as control cultures.

Substance	SOD2 protein maximal relative induction compared to diluent (SOD2 protein; 100 μM pTT, at 24 hours, three donors, mean±SEM)	PI fluorescence (toxicity / nonviable cells) [1]	cells staining positive in the SA-β-gal assay (human dermal fibroblasts; 40 μM TO or 100 μM pTT, 24-72 hours of treatment)	SA-β-gal positive cells, result in words (human dermal fibroblasts)	cell yields over time following exposure to H2O2 vs diluent pretreated ([2]; 100 μM pTT 72 hours pretreatment, 25 μM H2O2 1 hour, p=0.0008)	cell yields at 8 hours after H2O2 treatment vs diluent-pretreated ([2]; 100 μM pTT pretreatment, 25 μM H2O2)	higher relative cell yields (percentage of respective H2O2 controls) vs diluent-pretreated ([2]; 100 μM pTT pretreatment, 24 and 48 hours after 25 μM H2O2) [%]	SOD2 protein level (SOD2 protein; 40 μM, within several hours, up to 168 hours)	resistance to H2O2 measured by total cell yield ([2]; 40 μM TO 72 hours pretreatment, 25 μM H2O2 1 hour, up to 48 hours)	cells surviving oxidative challenge by H2O2 (cell yield as percent of own diluent control) ([2]; 40 μM TO pretreatment, 25 μM H2O2, non-treated control 52%) [%]
5′-phosphorylated thymidine dinucleotides [pTT]	31% (±20%)	less than that induced by the positive control; also recorded: comparable to diluent treatment	Less than 10%	did not result in a significant number of SA-β-gal cells; also recorded: did not display S.A. β-gal activity	higher cell yields	lower cell yields than in the diluent-pretreated group	10	–	–	–
pGTTAGGGTTAG (5' {P}, sugars by position and backbone not given here) [TO]	–	less than that induced by the positive control; also recorded: comparable to diluent treatment	–	did not display S.A. β-gal activity	–	–	–	induced	increased resistance to H2O2	75

Reference: patent US20100286247A1, “Methods of Protection from Oxidative Stress” (Trustees of Boston University, priority 2005, published 2010)
